Numbers after ± are expanded uncertainties.
Key:
[1] = for surface tension liquid-gas: Maximal bubble pressure; for mass density: 101.33 kPa, Liquid, Vibrating tube method
[2] = xn = mol fraction of the nth substance listed; settings: for surface tension liquid-gas: Maximal bubble pressure; for mass density: 101 kPa, Liquid, Vibrating tube method

CCCCS(=O)CCCC [dibutyl sulfoxide]
[1], 313.15 K
Settings	mass density [kg/m3]	surface tension liquid-gas [mN/m]
–	922.34 ± 4.6	28.5 ± 0.3

CCCCS(=O)CCCC [dibutyl sulfoxide] + ClC(Cl)(Cl)Cl
[2], 313.15 K
Settings	mass density [kg/m3]	surface tension liquid-gas [mN/m]
x2 = 0.1074	963.82 ± 0.25	–
x2 = 0.2232	–	28 ± 0.3
x2 = 0.2288	1017.38 ± 0.26	–
x2 = 0.303	1052.44 ± 0.29	–
x2 = 0.4057	1106.17 ± 0.33	–
x2 = 0.4457	–	27.3 ± 0.3
x2 = 0.4984	1157.99 ± 0.38	–
x2 = 0.51	–	27 ± 0.3
x2 = 0.5476	–	26.7 ± 0.3
x2 = 0.601	1222.74 ± 0.44	–
x2 = 0.6539	–	25.9 ± 0.3
x2 = 0.7009	1292.11 ± 0.5	–
x2 = 0.7038	–	25.4 ± 0.3
x2 = 0.7998	–	24.5 ± 0.3
x2 = 0.8019	1370.59 ± 0.57	–
x2 = 0.8962	–	23.5 ± 0.3

CC[S+]([O-])CC [diethyl sulfoxide]
[1]
Settings	mass density [kg/m3]	surface tension liquid-gas [mN/m]
298.15 K	1009.51 ± 0.24	34.6 ± 0.3
303.15 K	1005.14 ± 0.24	34.3 ± 0.3
308.15 K	1000.77 ± 0.23	34 ± 0.3
313.15 K	996.4 ± 0.23	33.7 ± 0.3

CC[S+]([O-])CC [diethyl sulfoxide] + ClC(Cl)(Cl)Cl
[2]
Settings	mass density, 298.15 K [kg/m3]	mass density, 303.15 K [kg/m3]	mass density, 308.15 K [kg/m3]	mass density, 313.15 K [kg/m3]	surface tension liquid-gas, 298.15 K [mN/m]	surface tension liquid-gas, 303.15 K [mN/m]	surface tension liquid-gas, 308.15 K [mN/m]	surface tension liquid-gas, 313.15 K [mN/m]
x2 = 0.0408	1036.23 ± 0.28	1031.26 ± 0.28	1024.88 ± 0.28	1020.51 ± 0.27	–	–	–	–
x2 = 0.1016	–	–	–	–	35 ± 0.3	34.7 ± 0.3	34.1 ± 0.3	33.6 ± 0.3
x2 = 0.1065	1074.77 ± 0.31	1069.42 ± 0.31	1064.04 ± 0.3	1058.67 ± 0.3	–	–	–	–
x2 = 0.218	–	–	–	–	33.9 ± 0.3	33.4 ± 0.3	32.7 ± 0.3	32.1 ± 0.3
x2 = 0.2249	1142.65 ± 0.36	1137.29 ± 0.36	1131.92 ± 0.36	1126.55 ± 0.35	–	–	–	–
x2 = 0.3172	–	–	–	–	32 ± 0.3	31.5 ± 0.3	30.9 ± 0.3	30.3 ± 0.3
x2 = 0.3231	1198.5 ± 0.41	1192.67 ± 0.4	1186.82 ± 0.4	1180.98 ± 0.39	–	–	–	–
x2 = 0.4093	–	–	–	–	30.3 ± 0.3	29.8 ± 0.3	29.2 ± 0.3	28.6 ± 0.3
x2 = 0.4567	1273.33 ± 0.47	1266.87 ± 0.47	1260.4 ± 0.5	1253.92 ± 0.46	–	–	–	–
x2 = 0.4782	–	–	–	–	29.1 ± 0.3	28.6 ± 0.3	28.1 ± 0.3	27.6 ± 0.3
x2 = 0.5102	–	–	–	–	28.5 ± 0.3	28 ± 0.3	27.6 ± 0.3	27.1 ± 0.3
x2 = 0.6562	–	–	–	–	27 ± 0.3	26.5 ± 0.3	25.9 ± 0.3	25.3 ± 0.3
x2 = 0.7363	1433.49 ± 0.62	1425.5 ± 0.6	1417.48 ± 0.6	1409.44 ± 0.6	–	–	–	–
x2 = 0.7512	–	–	–	–	26.2 ± 0.3	25.7 ± 0.3	25.1 ± 0.3	24.5 ± 0.3
x2 = 0.8701	–	–	–	–	25.3 ± 0.3	24.7 ± 0.3	24.1 ± 0.3	23.5 ± 0.3
x2 = 0.8985	1527.46 ± 0.71	1519.07 ± 0.7	1509.96 ± 0.69	1500.84 ± 0.68	–	–	–	–
x2 = 0.9419	–	–	–	–	24.6 ± 0.3	24 ± 0.3	23.5 ± 0.3	22.9 ± 0.3
x2 = 0.9533	1558.34 ± 0.74	1548.91 ± 0.73	1539.42 ± 0.72	1529.92 ± 0.71	–	–	–	–

C[S+](C)[O-] [dimethyl sulfoxide]
[1]
Settings	mass density [kg/m3]	surface tension liquid-gas [mN/m]
298.15 K	1095.35 ± 0.31	42.5 ± 0.4
303.15 K	1090.33 ± 0.3	42 ± 0.4
308.15 K	1085.32 ± 0.3	41.5 ± 0.4
313.15 K	1080.29 ± 0.29	41 ± 0.4

CCCS(=O)CCC [dipropyl sulfoxide]
[1]
Settings	mass density [kg/m3]	surface tension liquid-gas [mN/m]
298.15 K	957.77 ± 0.23	32.6 ± 0.3
303.15 K	953.67 ± 0.23	32 ± 0.3
308.15 K	949.58 ± 0.23	31.5 ± 0.3
313.15 K	945.5 ± 0.2	31 ± 0.3

CCCS(=O)CCC [dipropyl sulfoxide] + ClC(Cl)(Cl)Cl
[2]
Settings	mass density, 298.15 K [kg/m3]	mass density, 303.15 K [kg/m3]	mass density, 308.15 K [kg/m3]	mass density, 313.15 K [kg/m3]	surface tension liquid-gas, 298.15 K [mN/m]	surface tension liquid-gas, 303.15 K [mN/m]	surface tension liquid-gas, 308.15 K [mN/m]	surface tension liquid-gas, 313.15 K [mN/m]
x2 = 0.0837	997.89 ± 0.25	993.53 ± 0.25	989.15 ± 0.25	984.79 ± 0.25	–	–	–	–
x2 = 0.2049	–	–	–	–	31.2 ± 0.3	30.8 ± 0.3	30.4 ± 0.3	29.9 ± 0.3
x2 = 0.2132	1061.92 ± 0.3	1057.03 ± 0.29	1052.27 ± 0.29	1047.44 ± 0.28	–	–	–	–
x2 = 0.2784	1097.07 ± 0.33	1091.98 ± 0.32	1086.9 ± 0.3	1081.81 ± 0.31	–	–	–	–
x2 = 0.2998	–	–	–	–	30.8 ± 0.3	30.4 ± 0.3	29.9 ± 0.3	29.5 ± 0.3
x2 = 0.4165	–	–	–	–	30.4 ± 0.3	29.8 ± 0.3	29.3 ± 0.3	28.7 ± 0.3
x2 = 0.4545	1197.46 ± 0.41	1191.59 ± 0.4	1185.73 ± 0.4	1179.84 ± 0.39	–	–	–	–
x2 = 0.5304	–	–	–	–	29.6 ± 0.3	28.9 ± 0.3	28.2 ± 0.3	27.7 ± 0.3
x2 = 0.6109	–	–	–	–	28.8 ± 0.3	28.1 ± 0.3	27.5 ± 0.3	26.9 ± 0.3
x2 = 0.6285	1305.93 ± 0.5	1299.22 ± 0.5	1292.38 ± 0.49	1285.53 ± 0.49	–	–	–	–
x2 = 0.704	1356.22 ± 0.55	1348.94 ± 0.55	1341.67 ± 0.54	1334.38 ± 0.53	–	–	–	–
x2 = 0.7078	–	–	–	–	27.6 ± 0.3	26.9 ± 0.3	26.2 ± 0.3	25.7 ± 0.3
x2 = 0.8055	–	–	–	–	26.3 ± 0.3	25.7 ± 0.3	25.1 ± 0.3	24.5 ± 0.3
x2 = 0.8468	1461.39 ± 0.65	1453.03 ± 0.64	1444.65 ± 0.63	1436.24 ± 0.63	–	–	–	–
x2 = 0.8547	1466.95 ± 0.66	1458.55 ± 0.65	1450.15 ± 0.64	1441.7 ± 0.6	–	–	–	–
x2 = 0.8995	–	–	–	–	25.3 ± 0.3	24.7 ± 0.3	24.1 ± 0.3	23.5 ± 0.3
x2 = 0.9178	1516.99 ± 0.71	1508.02 ± 0.7	1499.04 ± 0.69	1490.03 ± 0.68	–	–	–	–
x2 = 0.9588	1550.62 ± 0.74	1541.21 ± 0.73	1531.83 ± 0.72	1522.41 ± 0.71	–	–	–	–

ClC(Cl)(Cl)Cl [tetrachloromethane]
[1]
Settings	mass density [kg/m3]	surface tension liquid-gas [mN/m]
298.15 K	1584.36 ± 0.76	24.2 ± 0.3
303.15 K	1574.61 ± 0.75	23.7 ± 0.3
308.15 K	1564.83 ± 0.74	23 ± 0.3
313.15 K	1554.96 ± 0.73	22.3 ± 0.3

Source: the NIST ThermoML archive (doi:10.1016/j.jct.2009.06.021)
